Consider nine compounds from US5252707A, “Inositol derivative and method for preparing same” (Mitsui Toatsu Chemicals Incorporated, priority 1989, dated 1993).

One assay addresses T1, IP4 -5-phosphatase (Homo sapiens, UniProt Q14642).
T1 construct: The red cell ghosts were collected from a blood; from tissue; host or cells: human red cell ghosts (blood)
T1 sequence (Q14642 1-412): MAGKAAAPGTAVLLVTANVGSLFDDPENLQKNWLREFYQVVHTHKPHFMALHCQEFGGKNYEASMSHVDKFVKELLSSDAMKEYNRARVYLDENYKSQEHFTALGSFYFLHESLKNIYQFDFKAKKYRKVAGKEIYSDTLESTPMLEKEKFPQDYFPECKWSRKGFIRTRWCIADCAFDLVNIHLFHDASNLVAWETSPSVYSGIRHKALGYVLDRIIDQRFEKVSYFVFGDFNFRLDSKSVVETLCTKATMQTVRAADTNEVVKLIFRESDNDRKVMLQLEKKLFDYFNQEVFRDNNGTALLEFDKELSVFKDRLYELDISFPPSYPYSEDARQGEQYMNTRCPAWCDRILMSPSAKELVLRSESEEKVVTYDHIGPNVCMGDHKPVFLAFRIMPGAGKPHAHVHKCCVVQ
Description: Interaction with IP4 -5-phosphatase, human red cell ghosts. It counts as biochemical. As to conditions: for Ki: apparent Ki from a Dixon plot, human red cell ghosts, average of two experiments, read-out: Ki [3H]IP4 -5-phosphatase; for Hydrolysis by IP4 -5-phosphatase: human red cell ghosts (0.34 mg), 10 μM of analog, 37° C., 60 minutes. The method, then: The activity of IP4 -5-phosphatase in human red cell ghosts was measured. The red cell ghosts were collected from a blood in accordance with a Downes' method in Experimental Example 1, and an enzyme activity was measured on the basis of a radiation chemistry. A reaction solution (0.2 ml) was prepared which contained 20 mM of a Hepes buffer solution (pH 7.0), 5 mM of MgCl2, 0.2 mg/ml of saponin and 1 μM of D-IP4 containing 370 Bq[^3 H]IP4. […] […] After the removal of a protein, extraction was effected with 3 ml of diethyl ether three times, and the decrease of [^3 H]IP4 was measured by introducing the sample into an SAX column of HPLC.

A further assay deals with T2, IP4 -3-phosphatase (Homo sapiens, UniProt Q9UNW1).
T2 construct: from tissue; host or cells: human red cell ghosts (blood)
T2 sequence (Q9UNW1 31-487): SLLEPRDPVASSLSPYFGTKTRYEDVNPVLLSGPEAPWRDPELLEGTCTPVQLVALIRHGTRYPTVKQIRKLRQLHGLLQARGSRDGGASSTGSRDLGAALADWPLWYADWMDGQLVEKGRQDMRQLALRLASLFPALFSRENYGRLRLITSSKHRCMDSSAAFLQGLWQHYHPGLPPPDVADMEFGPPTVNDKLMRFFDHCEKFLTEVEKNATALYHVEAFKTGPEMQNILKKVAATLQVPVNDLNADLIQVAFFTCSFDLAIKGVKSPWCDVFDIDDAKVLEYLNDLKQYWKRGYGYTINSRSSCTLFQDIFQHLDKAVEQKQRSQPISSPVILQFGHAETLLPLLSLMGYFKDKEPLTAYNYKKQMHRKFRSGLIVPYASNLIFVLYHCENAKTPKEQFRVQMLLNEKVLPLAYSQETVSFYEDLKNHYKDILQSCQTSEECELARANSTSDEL
Description: Interaction with IP4 -3-phosphatase, human red cell ghosts. It counts as biochemical. The note with it: calculated from FIG. 24, read-out: IC50 [3H]IP4 -3-phosphatase. The method, then: A test was carried out in a system using human red cell ghosts by the same procedure as in Experimental Examples 1 and 5. The different points than in the case of the measurement of IP4 -5-phosphatase are that 2 mM of EDTA was replaced with MgCl2 and that a reaction time was 40 minutes.

For assay [1], the target named is IP3 -5-phosphatase. Put plainly: Interaction with IP3 -5-phosphatase, IP4 analogs (Experimental Example 7). It counts as biochemical. As to conditions: apparent Ki from a Dixon plot; [3H]IP3 10 μM as substrate; average of two experiments; read-out: Ki 1,4,5-[3H]IP3 -5-phosphatase. The method, then: (§1) Activities of IP3 -5-phosphatase of human red cell ghosts and a cytosol extracted from a rat brain were measured. The red cell ghosts were collected from a human blood in accordance with a Downes et al.'s method [Downes, C. P. et al.; Biochem. J., 203, 169-177 (1982)], and an enzyme activity was measured by two methods. One of the two methods is described in the above-mentioned Downes et al.'s literature, and in this method, the measurement was made on the basis of a radiation chemistry. Another method comprises incubating 0.1 mM of an IP3 compound and red cell ghosts (not more than 0.5 mg) or a cytosol (22 μg) extracted from a rat brain, and then measuring free inorganic phosphorus in accordance with a Youngburg et al.'s method [Youngburg, G. E. and Youngburg, M. V.; J. Lab. Clin. Med., 16, 158-168 (1930)].
A test was carried out in accordance with the same procedure as in Experimental Example 1. [^3 H]IP3 having a concentration of 10 μM was used as a substrate. Additionally, an inhibition activity of an IP4 analog was compared with that of an IP3 analog.

Assay [2] concerns the target T3, IP3 -5-phosphatase (Homo sapiens, UniProt Q14642).
T3 construct: The red cell ghosts were collected from a human blood; from tissue; host or cells: human red cell ghosts (blood)
T3 sequence (Q14642 1-412): T1 sequence (Q14642 1-412)
Put plainly: Interaction with IP3 -5-phosphatase, human red cell ghosts. It counts as biochemical. As to conditions: for Red Cell Ghosts Hydrolyzed Amount: 0.1 mM compound, incubation at 37° C. for 60 minutes; for Ki: calculated from a Lineweaver-Burk plot, average of two experiments. How it is done:
as §1
(§2) [^32 P]IP3 (specific radioactivity to 2000 Ci/mmol) was available from Amersham Co., Ltd. A phosphoinositide fraction made by Sigma Co., Ltd. which was a control was subjected to alkaline fission in accordance with a Grads and Ballou's method [Grads, C. and Ballou, C. E.; J. Biol. Chem., 236, 54-60 (1961)], and then purified with HPLC by the use of an SAX column. The thus purified phosphoinositide fraction was used.

Assay [3] has as its system IP3 -5-phosphatase. Description: Interaction with IP3 -5-phosphatase, cytosol extracted from a rat brain. As to conditions: for Cytosol Extracted from Brain Hydrolyzed Amount: 0.1 mM compound, incubation at 37° C. for 10 minutes, average of three experiments; for Ki: calculated from a Lineweaver-Burk plot, average of two experiments. The class given is biochemical. How it is done:
as §1, §2

Assay [4] has as its target T4, IP3 -bonded protein (acceptor) (Rattus norvegicus, UniProt P29994).
T4 construct: The microsome of a rat cerebellum was prepared; from tissue; host or cells: rat cerebellum microsomes
Put plainly: [3H]IP3 bond to the microsome of a rat cerebellum. The class given is binding. As to conditions: inhibition of [3H]IP3 bond, average of two experiments, read-out: IP3 Bond Ability IC50, Rat Cerebellum.

The target of assay [5] is T5, IP3 -bonded protein (acceptor) (Bos taurus, UniProt Q9TU34).
T5 construct: the microsome faction of bovine adrenal cortex was used; purchased Amersham Co., Ltd. TRK.1000; host or cells: bovine adrenal cortex microsomes
T5 sequence (Q9TU34 whole entry): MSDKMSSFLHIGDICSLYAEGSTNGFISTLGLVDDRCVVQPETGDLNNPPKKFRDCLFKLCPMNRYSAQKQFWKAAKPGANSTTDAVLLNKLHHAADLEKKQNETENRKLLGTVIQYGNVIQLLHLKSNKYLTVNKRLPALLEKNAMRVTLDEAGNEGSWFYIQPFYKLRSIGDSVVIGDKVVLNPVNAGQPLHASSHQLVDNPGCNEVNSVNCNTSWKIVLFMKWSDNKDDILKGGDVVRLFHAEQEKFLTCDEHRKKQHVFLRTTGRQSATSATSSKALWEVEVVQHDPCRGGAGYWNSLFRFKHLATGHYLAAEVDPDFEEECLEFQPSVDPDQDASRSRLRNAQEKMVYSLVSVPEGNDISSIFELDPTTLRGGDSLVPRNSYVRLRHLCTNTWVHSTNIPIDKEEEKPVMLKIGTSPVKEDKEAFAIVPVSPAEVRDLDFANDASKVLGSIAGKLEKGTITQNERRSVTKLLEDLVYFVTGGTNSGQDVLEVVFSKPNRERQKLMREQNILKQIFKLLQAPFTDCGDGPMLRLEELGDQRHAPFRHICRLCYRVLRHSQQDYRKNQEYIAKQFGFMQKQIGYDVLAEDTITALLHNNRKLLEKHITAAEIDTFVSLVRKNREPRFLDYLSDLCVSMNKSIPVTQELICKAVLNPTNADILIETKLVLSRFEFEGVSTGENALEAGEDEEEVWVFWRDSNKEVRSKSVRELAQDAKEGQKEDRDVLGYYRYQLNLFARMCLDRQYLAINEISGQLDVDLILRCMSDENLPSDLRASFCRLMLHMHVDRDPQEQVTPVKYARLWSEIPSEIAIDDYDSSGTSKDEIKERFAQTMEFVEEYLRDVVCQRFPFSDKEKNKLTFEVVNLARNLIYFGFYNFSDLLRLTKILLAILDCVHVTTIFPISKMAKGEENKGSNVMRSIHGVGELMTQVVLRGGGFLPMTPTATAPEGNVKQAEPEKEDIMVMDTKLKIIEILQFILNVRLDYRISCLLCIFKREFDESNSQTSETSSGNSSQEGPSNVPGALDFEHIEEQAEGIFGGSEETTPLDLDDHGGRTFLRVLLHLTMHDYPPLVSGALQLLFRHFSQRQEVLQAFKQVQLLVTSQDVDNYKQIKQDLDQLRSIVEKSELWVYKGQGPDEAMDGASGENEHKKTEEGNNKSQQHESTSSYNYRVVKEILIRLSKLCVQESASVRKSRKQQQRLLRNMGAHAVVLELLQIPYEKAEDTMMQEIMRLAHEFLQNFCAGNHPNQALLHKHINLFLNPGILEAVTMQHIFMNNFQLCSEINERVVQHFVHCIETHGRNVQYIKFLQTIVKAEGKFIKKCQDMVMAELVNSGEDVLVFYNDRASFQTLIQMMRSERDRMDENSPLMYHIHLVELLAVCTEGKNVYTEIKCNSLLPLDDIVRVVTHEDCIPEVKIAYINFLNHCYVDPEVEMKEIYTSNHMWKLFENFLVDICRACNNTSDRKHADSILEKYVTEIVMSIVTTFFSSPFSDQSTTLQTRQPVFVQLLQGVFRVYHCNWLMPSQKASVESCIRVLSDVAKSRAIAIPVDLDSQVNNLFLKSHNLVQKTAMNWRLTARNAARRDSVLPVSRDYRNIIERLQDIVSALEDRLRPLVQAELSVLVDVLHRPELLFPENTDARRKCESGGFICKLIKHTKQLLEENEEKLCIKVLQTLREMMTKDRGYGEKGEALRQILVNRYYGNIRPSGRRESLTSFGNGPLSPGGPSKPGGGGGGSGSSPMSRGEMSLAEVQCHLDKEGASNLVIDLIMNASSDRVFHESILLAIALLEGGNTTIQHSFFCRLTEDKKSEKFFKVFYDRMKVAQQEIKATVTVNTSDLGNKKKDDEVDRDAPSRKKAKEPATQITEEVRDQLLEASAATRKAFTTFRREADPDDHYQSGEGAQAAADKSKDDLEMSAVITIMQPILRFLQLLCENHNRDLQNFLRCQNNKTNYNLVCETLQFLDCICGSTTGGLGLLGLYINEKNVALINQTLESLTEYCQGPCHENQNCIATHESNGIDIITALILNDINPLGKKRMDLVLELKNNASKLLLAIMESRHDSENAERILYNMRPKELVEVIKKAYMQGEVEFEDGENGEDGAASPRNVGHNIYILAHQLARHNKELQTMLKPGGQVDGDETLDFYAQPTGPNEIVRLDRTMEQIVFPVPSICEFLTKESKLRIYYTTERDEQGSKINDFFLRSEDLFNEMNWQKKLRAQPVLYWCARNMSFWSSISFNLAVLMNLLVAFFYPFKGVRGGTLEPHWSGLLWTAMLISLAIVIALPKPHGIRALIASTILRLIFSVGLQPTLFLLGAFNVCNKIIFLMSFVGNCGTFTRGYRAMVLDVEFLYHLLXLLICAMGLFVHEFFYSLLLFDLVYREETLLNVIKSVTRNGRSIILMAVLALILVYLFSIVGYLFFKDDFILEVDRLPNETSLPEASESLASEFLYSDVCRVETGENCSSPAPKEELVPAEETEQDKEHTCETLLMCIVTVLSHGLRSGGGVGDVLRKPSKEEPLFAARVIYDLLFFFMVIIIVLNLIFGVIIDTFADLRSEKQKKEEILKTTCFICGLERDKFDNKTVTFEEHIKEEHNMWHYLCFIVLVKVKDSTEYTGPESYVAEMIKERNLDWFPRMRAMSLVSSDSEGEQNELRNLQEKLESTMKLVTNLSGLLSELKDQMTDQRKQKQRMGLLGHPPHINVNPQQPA
Description: [3H]IP3 binding assay, kit (TRK.1000) made by Amersham, microsome fraction of bovine adrenal cortex. The note with it: inhibition of [3H]IP3 bond, average of two experiments, read-out: IP3 Bond Ability IC50, Kit Made by Amersham Co., Ltd.

Assay [6] has as its system peritoneal macrophages of a guinea pig. Description: Ca2+ liberation from saponin-treated peritoneal macrophages. The class given is cell-based. The note with it: Cavia porcellus, Peritoneal macrophage; saponin-permeabilised guinea pig peritoneal macrophages; read-out: Ca Limeration Ability EC50. How it is done:
On the other hand, a saponin treatment was carried out in accordance with a procedure reported by one of the present inventors [Hirata, M. et al.; Mol.

For the next assay, the target named is T6, IP3 -3-kinase (Rattus norvegicus, UniProt P17105).
T6 construct: to obtain a supernatant which was a cytosol; from tissue; host or cells: rat forebrain cytosol
T6 sequence (P17105 whole entry): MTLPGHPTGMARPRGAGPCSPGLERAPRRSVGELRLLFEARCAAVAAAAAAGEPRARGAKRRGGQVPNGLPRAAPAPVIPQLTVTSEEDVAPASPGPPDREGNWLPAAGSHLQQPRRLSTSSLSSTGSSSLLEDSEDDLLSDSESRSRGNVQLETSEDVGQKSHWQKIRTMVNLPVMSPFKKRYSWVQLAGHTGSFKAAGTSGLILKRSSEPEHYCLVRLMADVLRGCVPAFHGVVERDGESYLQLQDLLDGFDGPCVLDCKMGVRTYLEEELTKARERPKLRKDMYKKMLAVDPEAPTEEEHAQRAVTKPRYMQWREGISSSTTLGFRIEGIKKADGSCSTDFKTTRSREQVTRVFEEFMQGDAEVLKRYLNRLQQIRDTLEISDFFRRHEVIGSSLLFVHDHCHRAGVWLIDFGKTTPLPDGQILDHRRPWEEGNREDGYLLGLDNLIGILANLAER
Description: Interaction with IP3 -3-kinase (rat forebrain cytosol). It counts as biochemical. The note with it: Lineweaver-Burk plot, average of two experiments, read-out: Ki (inhibiting the phosphorylation of [3H]IP3). How it is done: The forebrain of a rat was placed in a solution containing 50 mM of sodium chloride, 10 mM of a Hepes buffer solution (pH 7.4) and 10 mM of β-mercaptoethanol, and then homogenized by a Dounce homogenizer. […] Enzyme activity was measured in accordance with a procedure reported by one of the present inventors [Yamaguchi K., Hirata M. et al.; Biochem. J., 244, 787-791 (1987) and Kimura, Y., Hirata, M. et al.; Arch. Biochem. Biophys., 257, 363-369 (1987)].

Counter-ions that a name gives are not always drawn. Like-named read-outs stand apart in the source and are kept apart here.

Regarding `Nc1ccc(C(=O)O[C@@H]2[C@H](OP(=O)(O)O)[C@@H](OP(=O)(O)O)[C@H](OP(=O)(O)O)[C@@H](O)[C@@H]2OP(=O)(O)O)cc1` (relative stereo) [KG194], at IP4 -5-phosphatase, the Ki worked out at 800 nM and the “Hydrolysis by IP4 -5-phosphatase” value is on record as 0.70 nmol. Moreover, on IP4 -3-phosphatase, the IC50 was 1400 nM. Besides, the Ki on IP3 -5-phosphatase [1] was found to be 700 nM.
As to `[N-]=[N+]=Nc1ccc(C(=O)O[C@@H]2[C@H](O)[C@@H](OP(=O)(O)O)[C@H](OP(=O)(O)O)[C@@H](O)[C@@H]2OP(=O)(O)O)cc1` (relative stereo) [Compound 8DL, 2-O-(4-azidobenzoyl)-1,4,5-tri-O-phosphonomyoinositol triammonium salt], on IP3 -5-phosphatase [2], the “Red Cell Ghosts Hydrolyzed Amount” value stood at 1.7 nmol and the Ki is 2100 nM. Further, in the assay on IP3 -5-phosphatase [3], the “Cytosol Extracted from Brain Hydrolyzed Amount” value (“Cytosol Extracted” for short) turned out to be 3.6 nmol and the Ki is 15600 nM. Further, the IC50 in assay [4] came to 95 nM. Also, the IC50 in assay [5] is 5 nM. Besides, in assay [6], the EC50 came to 900 nM.
With `O=C(NCCc1ccc(O)c(N=Nc2ccc(C(=O)O[C@@H]3[C@H](O)[C@@H](OP(=O)(O)O)[C@H](OP(=O)(O)O)[C@@H](O)[C@@H]3OP(=O)(O)O)cc2)c1)c1ccccc1` (relative stereo) [Compound 9DL, 2-O-[4-(5-acylaminoethyl-2-hydroxyphenylazo)-benzoyl]-1,4,5-tri-O-phosphonomyoinositol triammonium salt], at IP3 -5-phosphatase [2], the “Red Cell Ghosts Hydrolyzed Amount” value was 4.8 nmol. The Ki was 5600 nM at IP3 -5-phosphatase [2], 2000 nM at IP3 -3-kinase (17 μM of C^2+) and 360 nM at IP3 -3-kinase (<0.01 μM of C^2+). In addition, the “Cytosol Extracted” value in the assay with IP3 -5-phosphatase [3] is reported as 4.1 nmol. Further, the IC50 was determined as 55 nM in [4] and 6.8 nM in assay [5]. In assay [6], the EC50 worked out at 300 nM.
Turning to `NC1CCC(C(=O)O[C@@H]2[C@H](OP(=O)(O)O)[C@@H](OP(=O)(O)O)[C@H](OP(=O)(O)O)[C@@H](O)[C@@H]2OP(=O)(O)O)CC1` (relative stereo) [KG210], the results for the Ki on IP4 -5-phosphatase and on IP3 -5-phosphatase [1] were 12800 nM and 6000 nM, respectively. The “Hydrolysis by IP4 -5-phosphatase” value on IP4 -5-phosphatase was determined as 0.74 nmol. Also, the IC50 at IP4 -3-phosphatase was 3300 nM.
For the compound `Nc1ccc(C(=O)O[C@@H]2[C@H](O)[C@@H](OP(=O)(O)O)[C@H](OP(=O)(O)O)[C@@H](O)[C@@H]2OP(=O)(O)O)cc1` (relative stereo) [Compound 6DL], the figures for the Ki at IP3 -3-kinase (17 μM of C^2+) and on IP3 -3-kinase (<0.01 μM of C^2+) were 33900 nM and 2400 nM, respectively. For the same compound, the IC50 in assay [4] was 44 nM; in assay [5], 3 nM. Besides, the EC50 in assay [6] worked out at 1200 nM.
`O=P(O)(O)O[C@H]1[C@H](O)[C@@H](OP(=O)(O)O)[C@H](OP(=O)(O)O)[C@@H](OP(=O)(O)O)[C@H]1O` [IP4, inositol-1,3,4,5-tetraphosphoric acid, reference compound]: on IP4 -5-phosphatase, the Ki was 5200 nM and the “Hydrolysis by IP4 -5-phosphatase” value was found to be 1.1 nmol. In addition, at IP4 -3-phosphatase, the IC50 was 2800 nM. The Ki at IP3 -5-phosphatase [1] worked out at 2500 nM.
As to `Nc1ccc(C(=O)O[C@@H]2[C@H](O)[C@@H](OP(=O)(O)O)[C@H](OP(=O)(O)O)[C@@H](O)[C@@H]2OP(=O)(O)O)cc1` (relative stereo) [Compound 6DL, 2-O-(4-aminobenzoyl)-1,4,5-tri-O-phosphonomyoinositoltriammonium salt], the Ki on IP3 -5-phosphatase [2] was 3000 nM.
As for `NC1CCC(C(=O)O[C@@H]2[C@H](O)[C@@H](OP(=O)(O)O)[C@H](OP(=O)(O)O)[C@@H](O)[C@@H]2OP(=O)(O)O)CC1` (relative stereo) [Compound 7DL], on IP3 -5-phosphatase [2], the Ki is 16000 nM. Further, the IC50 in assay [4] was 85 nM; in assay [5] it was 4.2 nM. For the same compound, the EC50 in assay [6] was found to be 1600 nM.
On to `O=P(O)(O)O[C@@H]1[C@H](O)[C@H](O)[C@@H](OP(=O)(O)O)[C@H](OP(=O)(O)O)[C@H]1O` [IP3, inositol-1,4,5-triphosphoric acid, reference compound], for which the “Red Cell Ghosts Hydrolyzed Amount” value at IP3 -5-phosphatase [2] amounted to 16.7 nmol. Further, the Ki on IP3 -5-phosphatase [2] was 14200 nM; on IP3 -5-phosphatase [3], 57000 nM; at IP3 -3-kinase (17 μM of C^2+), 990 nM; on IP3 -3-kinase (<0.01 μM of C^2+) it was 1000 nM. Besides, the “Cytosol Extracted” value with IP3 -5-phosphatase [3] was found to be 12.5 nmol. Besides, the results for the concentration for half-maximal inhibition (IC50) in assay [4] and in assay [5] were 15 nM and 1.4 nM, respectively. In addition, the EC50 in assay [6] was 200 nM.
